The target in assay [1] is T1, AVR4(C122S); also printed AVR4(C112S) (Gallus gallus, UniProt P56734, C146S).
T1 construct: recombinant AVR4 with cysteine-to-serine change, tetramer
The assay can be described thus: SDS-PAGE thermostability of acylated protein. It counts as binding. The following applies: thermal shift of subunit dissociation; Tr without biotin 90 °C; 140 µM D-biotin. An excerpt: SDS-PAGE thermostability of acylated protein on AVR4(C122S); also printed AVR4(C112S)

In assay [2] the target is chimeric dual-chain avidin dcAVD/AVR4 (tandem fusion of circularly permuted avidin cp54 and circularly permuted AVR4 cp65) (chicken). The assay can be described thus: SEC; Superdex 75 10/300 GL, 50 ug protein in 50 mM NaPO4 pH 7, 650 mM NaCl; column calibrated with Bio-Rad standards 1.5-67 kDa; dimer of the dual-chain polypeptide (pseudotetramer).

T1 sequence (P56734 25-150 C146S): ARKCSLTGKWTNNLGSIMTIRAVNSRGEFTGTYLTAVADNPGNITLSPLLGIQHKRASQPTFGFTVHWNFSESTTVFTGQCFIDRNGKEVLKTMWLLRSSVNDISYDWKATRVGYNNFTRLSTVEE

As for `O=C(O)CCCC[C@@H]1SC[C@@H]2NC(=O)N[C@@H]21` [D-biotin], the “SDS-PAGE / Tr ^(+BTN) (°C)” value in assay [1] was found to be 95 °C.
By stoichiometry N is commonly meant the number of molecules, sites or subunits per partner or assembly. Molecule “chimeric dual-chain avidin dcAVD/AVR4 (tandem fusion of circularly permuted avidin cp54 and circularly permuted AVR4 cp65)” gave a stoichiometry N in assay [2] of 2.

Values taken from publication PMC3105096, “Construction of Chimeric Dual-Chain Avidin by Tandem Fusion of the Related Avidins” (PLoS ONE, 2011).
